Results published in patent publication US20110306639A1, “HYDROCARBYLIDENE NITROHYDROZINECARBOXIMIDAMIDES AND A METHOD FOR MAKING THE SAME, AS WELL AS THEIR USES AS AN INSECTICIDE” (priority 2008, published 2011).
Where two headings read alike, the source gives them in different places.

Columns and labels:
[1] = test system: aphis gossypii; settings: 24 h
[2] = test system: asparagus caterpillar
[3] = test system: Helicoverpa armigera
[4] = test system: hyalopterus pruni; settings: 24 h
[5] = test system: myzus persicae; settings: for numbers of death/total numbers: 24 h
[6] = test system: bemisia tabaci gennadius

SMILES	mortality(%) asparagus caterpillar (500 μg/mL) ([2]; in vivo)	mortality(%) Helicoverpa armigera (500 μg/mL) ([3]; in vivo)	mortality(%) myzus persicae (600 μg/mL) ([5]; in vivo)	mortality(%) bemisia tabaci gennadius (500 μg/mL) ([6]; in vivo)	other results
CCCCCCC=NNC(=N[N+](=O)[O-])NCc1ccc(Cl)nc1 [Compound 50]	0%	20%	100%	–	numbers of death/total numbers ([1]; 3.13 μg/mL): 156/157; numbers of death/total numbers ([1]; 12.5 μg/mL): 150/150; numbers of death/total numbers ([1]; 50 μg/mL): 245/245; numbers of death/total numbers ([4]; 25 μg/mL): 104/108; numbers of death/total numbers ([4]; 50 μg/mL): 98/102; numbers of death/total numbers ([4]; 100 μg/mL): 101/101; numbers of death/total numbers ([4]; 200 μg/mL): 110/110; numbers of death/total numbers ([4]; 400 μg/mL): 102/102; numbers of death/total numbers ([5]; 25 μg/mL): 78/78; numbers of death/total numbers ([5]; 50 μg/mL): 91/92; numbers of death/total numbers ([5]; 100 μg/mL): 87/87; numbers of death/total numbers ([5]; 200 μg/mL): 103/107; numbers of death/total numbers ([5]; 400 μg/mL): 96/96
CNC(=N[N+](=O)[O-])NN=Cc1ccc(N(C)C)cc1 [Compound 120]	–	–	–	82.76%	–
CCNC(=N[N+](=O)[O-])NN=Cc1ccccc1Cl [Compound 125]	–	–	–	53.06%	–
O=[N+]([O-])N=C(NCc1ccc(Cl)nc1)NN=Cc1ccco1 [Compound 115]	80%	10%	86.0%	9.30%	–
CCCCC=NNC(=N[N+](=O)[O-])NCc1ccc(Cl)nc1 [Compound 56]	20%	70%	100%	–	numbers of death/total numbers ([1]; 3.13 μg/mL): 121/157; numbers of death/total numbers ([1]; 12.5 μg/mL): 136/164; numbers of death/total numbers ([1]; 50 μg/mL): 166/178; numbers of death/total numbers ([4]; 25 μg/mL): 100/104; numbers of death/total numbers ([4]; 50 μg/mL): 96/101; numbers of death/total numbers ([4]; 100 μg/mL): 121/121; numbers of death/total numbers ([4]; 200 μg/mL): 101/101; numbers of death/total numbers ([4]; 400 μg/mL): 103/103; numbers of death/total numbers ([5]; 25 μg/mL): 104/104; numbers of death/total numbers ([5]; 50 μg/mL): 96/99; numbers of death/total numbers ([5]; 100 μg/mL): 149/149; numbers of death/total numbers ([5]; 200 μg/mL): 81/81; numbers of death/total numbers ([5]; 400 μg/mL): 77/77
CCNC(=N[N+](=O)[O-])NN=Cc1ccc(F)cc1 [Compound 129]	–	–	–	8.62%	–
CNC(=N[N+](=O)[O-])NN=Cc1ccc(OC)cc1 [Compound 121]	–	–	–	16.95%	–
COc1ccc(C=NNC(=N[N+](=O)[O-])NCc2ccc(Cl)nc2)cc1 [Compound 112]	90%	10%	54.4%	3.77%	–
O=[N+]([O-])N=C(NCc1ccccc1)NN=Cc1ccc(F)cc1 [Compound 133]	–	–	–	3.77%	–
CCCNC(=N[N+](=O)[O-])NN=Cc1ccc(OC)cc1 [Compound 130]	–	–	–	18.46%	–
CNC(=N[N+](=O)[O-])NN=Cc1ccccc1OC [Compound 119]	–	–	–	–	mortality(%) bemisia tabaci gennadius (500 μg/mL) ([6]; 500 μg/mL, 48 hours): 72.00%
CNC(=N[N+](=O)[O-])NN=Cc1ccccc1Cl [Compound 117]	–	–	–	17.78%	–
CCNC(=N[N+](=O)[O-])NN=Cc1ccc(OC)cc1 [Compound 127]	–	–	–	24.56%	–
C=CCNC(=N[N+](=O)[O-])NN=Cc1ccccc1Cl [Compound 93]	70%	40%	96.0%	–	numbers of death/total numbers ([1]; 3.13 μg/mL): 178/186; numbers of death/total numbers ([1]; 12.5 μg/mL): 124/124; numbers of death/total numbers ([1]; 50 μg/mL): 138/138; numbers of death/total numbers ([4]; 25 μg/mL): 102/112; numbers of death/total numbers ([4]; 50 μg/mL): 104/108; numbers of death/total numbers ([4]; 100 μg/mL): 103/103; numbers of death/total numbers ([4]; 200 μg/mL): 110/110; numbers of death/total numbers ([4]; 400 μg/mL): 103/103; numbers of death/total numbers ([5]; 25 μg/mL): 112/112; numbers of death/total numbers ([5]; 50 μg/mL): 94/98; numbers of death/total numbers ([5]; 100 μg/mL): 104/104; numbers of death/total numbers ([5]; 200 μg/mL): 114/114; numbers of death/total numbers ([5]; 400 μg/mL): 93/93
CNC(=N[N+](=O)[O-])NN=Cc1ccco1 [Compound 124]	–	–	–	88.68%	–
CCOc1ccc(C=NNC(=N[N+](=O)[O-])NCc2ccc(Cl)nc2)cc1OC [Compound 134]	–	–	–	1.82%	–
CCNC(=N[N+](=O)[O-])NN=Cc1ccc(OCC)c(OC)c1 [Compound 126]	–	–	–	6.67%	–
O=[N+]([O-])N=C(NCc1ccc(Cl)nc1)NN=Cc1ccccc1Cl [Compound 111]	40%	0%	22.0%	13.89%	–
CNC(=N[N+](=O)[O-])NN=Cc1ccc(F)cc1 [Compound 123]	–	–	–	4.69%	–
O=[N+]([O-])N=C(NCc1ccc(Cl)nc1)NN=Cc1ccc(F)cc1 [Compound 114]	70%	40%	72.3%	2.04%	–
COc1ccc(C=NNC(=N[N+](=O)[O-])NCc2ccccc2)cc1 [Compound 131]	–	–	–	1.89%	–
O=[N+]([O-])N=C(NCc1ccc(Cl)nc1)NN=Cc1ccccc1 [Compound 110]	–	–	–	–	mortality(%) asparagus caterpillar (500 μg/mL) ([2]; 500 μg/mL, 48 hours): 30%; mortality(%) Helicoverpa armigera (500 μg/mL) ([3]; 500 μg/mL, 48 hours): 0%; mortality(%) bemisia tabaci gennadius (500 μg/mL) ([6]; 500 μg/mL, 48 hours): 6.67%; mortality(%) myzus persicae (600 μg/mL) ([5]; 600 μg/mL): 92.8%
CNC(=N[N+](=O)[O-])NN=Cc1cccc(Oc2ccccc2)c1 [Compound 118]	–	–	–	14.81%	–
C=CCNC(=N[N+](=O)[O-])NN=CCCCCCC [Compound 47]	0%	–	23.7%	–	mortality(%) Helicoverpa armigera (500 μg/mL) ([3]; 500 μg/mL, 48 hours): 0%
C=CC=NNC(=N[N+](=O)[O-])NCC=C [Compound 42]	0%	–	37.1%	–	mortality(%) Helicoverpa armigera (500 μg/mL) ([3]; 500 μg/mL, 48 hours): 20%
CCC=NNC(=N[N+](=O)[O-])NCCC [Compound 10]	20%	–	78.3%	–	mortality(%) Helicoverpa armigera (500 μg/mL) ([3]; 500 μg/mL, 48 hours): 80%
CNC(=N[N+](=O)[O-])NN=CC=C(C)CCC=C(C)C [Compound 16]	70%	30%	31.4%	–	–
CCOc1ccc(C=NNC(=N[N+](=O)[O-])NCc2ccccc2)cc1OC [Compound 98]	10%	40%	13.3%	–	–
CCCNC(=N[N+](=O)[O-])NN=Cc1ccccc1Cl [Compound 90]	50%	10%	41.2%	–	–
